The results in this text go back to PMC7487798, “Glutaredoxin 1 Deficiency Leads to Microneme Protein-Mediated Growth Defects in Neospora caninum” (Frontiers in Microbiology, 2020).

Structures are written as SMILES.

The target in this assay is T1, NcGrx1 (rNcGrx1) (Neospora caninum, UniProt F0VCE0).
T1 construct: gene NCLIV_038390; recombinant NcGrx1; dithiol CPYC active site
Put plainly: HED assay, coupled to glutathione reductase, NADPH consumption at […] nm. The format is biochemical. The settings on record: 0.05-2 mM HED, 600 nM enzyme, 1 mM GSH, 200 μM NADPH, 100 mM potassium phosphate, 1 mM EDTA, pH 7.0, 25 °C; HED preincubated 3 min with GSH to form the mixed disulfide.

T1 sequence (F0VCE0 entry or part of it): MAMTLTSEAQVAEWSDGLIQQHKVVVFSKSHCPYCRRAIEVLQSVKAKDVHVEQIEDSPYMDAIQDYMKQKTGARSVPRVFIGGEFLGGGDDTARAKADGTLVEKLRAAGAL

One may read the Km as the substrate concentration at which the rate is half of its maximum. `OCCSSCCO` [β-hydroxyethyl disulfide]: the Km was 208 ± 23.9 µM.
